Legend:
HaCaT cells = test: Scratch wound healing (skin regeneration promotion); format: cell-based, human
Experimental: HaCaT cells, which are a human-derived keratinocyte cell line, were cultured under conditions of 37° C. and 5% CO2 using a DMEM medium (ADDEXBIO TECHNOLOGIES, San Diego, Calif., USA) supplemented with 10% fetal bovine serum (Gibco, Waltham, Mass., USA), […] and […]. After the cultured cells were seeded into a 24-well plate so as to have 2.0×10^5 cells per well, and then cultured for 24 hours, the cells were washed once with PBS, and scratches having a perpendicular line shape were created on the center of the plate by scraping the cells with a 200 μl pipet tip. The cells were washed twice with PBS to remove the dropped cell debris, and the medium was replaced with a […] DMEM containing each test material. In order to always capture the same part when the cells were photographed, the center of the well was marked with a fine marker and the cell photograph of the marked part was taken at the same time at the start of the experiment (0 hours). The cell photographs after 2, 4 and 24 hours were also taken in the same way. After a scratch area created on monolayer cells was measured from the photographs after 0 hours and 24 hours using an image analysis program (Image J), the area filled with the scratch area was shown as a wound healing percentage (%) according to the following General Formula 1.

human fibroblasts = test: Total amount of collagen produced (PICP EIA kit); format: cell-based; conditions: for Average absorbance: 450 nm, number of repeats=3; for Collagen increase rate (%): relative to control (no additive)
Experimental: The total amount of collagen was quantified using a PICP kit (Procollagen Type I C-Peptide Enzyme ImmunoAssay KIT).
Specifically, after each sample was added to the culture medium of human fibroblasts and cultured for 1 day, the culture medium was taken, and a degree of increase in the total amount of collagen at each concentration was measured at 450 nm using a spectrophotometer with the PICP EIA kit.

[1] = Skin permeability on pig skin (serine quantified by liquid chromatography); format: in vitro ADME; conditions: pH 6.0 (mixtures adjusted to weakly acidic using citric acid); serine 5 parts by weight
Experimental: 10 μg of each of the aqueous solutions of Comparative Examples 1 and 2 and Example 1 were prepared and applied to pig skin having a uniform area. A tissue soaked with phosphate buffered saline (PBS) was placed on a 6-well plate and stored with the pig skin placed on the tissue under conditions of a temperature of 37° C. and a humidity of 50% for 12 hours. Then, the sample that could not penetrate the skin was removed using a cotton swab and a keratin tape, and the weight of the pig skin was measured. After the pig skin was crushed using a homogenizer, the amino acid and the eutectic mixture in the sample were sufficiently dissolved by adding 1 ml of water thereto, and then the resulting solution was centrifuged at 12,000 rpm for 10 minutes. After centrifugation, 0.5 ml of the supernatant was collected, and the serine concentration of the sample, which would be the amount permeated through the skin, was quantified using liquid chromatography with standard samples, and then transmittance was obtained by dividing the quantified concentration by the weight of the pig skin and comparing this to the initially introduced serine mass, as serine amount per gram of the tissue. The results of the skin permeability are illustrated in FIG. 2.
The skin permeability of the eutectic mixture prepared in Experimental Example 12 was confirmed. […]

back skin of a pig = test: Keratin exfoliation effect on pig back skin (exfoliated keratin counted with cell counter)
Experimental: In order to confirm the keratin exfoliation effect of the aqueous eutectic mixture solution by the serine concentration of Example 2, the back skin of a pig was treated with the aqueous solution. Specifically, a 6-mm diameter sample with a thickness of 1 mm was taken from the back skin of the pig using a biopsy tool. After the sample was placed on a 96-well plate and washed once with phosphate buffered saline (PBS), 100 μl of the aqueous eutectic mixture solution of Example 2 was added thereto. In this case, to compare the keratin exfoliation effects, 100 μl of Comparative Example 4, a solution containing serine and malic acid, was added to the back skin of a pig in the same manner as described above. After the pig's back skin sample treated with each aqueous solution was stored under conditions of a temperature of 37° C. and humidity of 50% for 16 hours, the keratin exfoliation effect was confirmed by measuring the number of exfoliated keratin with a cell counter. In this case, a sample to which water was added was used as a negative control, a sample to which 10% gluconolactone (polyhydroxy acid, PHA) with a pH of 4, which is a known keratin exfoliating substance, was added was used as a first positive control, and a sample to which 10% gluconolactone with a pH of 6 was added was used as a second positive control. In the case of the second positive control, the keratin exfoliation effect was evaluated based on the condition that the efficacy was 15 to 20% compared to the first positive control. Here, the first positive control is applied as a reference for comparing the values between the actual experimental examples, and a relative keratin exfoliation value (%) was calculated and described as [(result value of sample)/(value of first positive control group)×100]. […]
Furthermore, it was confirmed whether the eutectic mixture was dissociated by observing the properties of a cosmetic (essence) including the eutectic mixture of Example 12, which was allowed to stand under separation conditions of the eutectic composition (Table 27) and confirming changes in melting point through measurement by differential scanning calorimetry (DSC) (Table 28) and the keratin exfoliation effect (Table 29), of the cosmetic. […] The melting point is expressed as a heat flow with respect to the sample in the DSC, and its accuracy is known to be 0.01° C. The melting point was measured in a pure nitrogen atmosphere, nitrogen was fed into a measuring chamber at a rate of 20 cc/min in order to maintain the nitrogen atmosphere, and the temperature of the chamber was set so as to increase by 10° C. per minute. The mass of the measured sample was confirmed by subtracting the weight of a pan for accommodating the sample in the DSC from the weight including the entire sample. […]

## N=C(N)NCCC[C@H](N)C(=O)O [Arg, arginine]
HaCaT cells; 10 ppm (mixtures based on the concentration of arginine)
  Wound healing percentage (%) after 24 hours: 73.5%
Human fibroblasts; 10 ppm, cultured for 1 day
  Average absorbance: 2.429
Human fibroblasts; 10 ppm
  Collagen increase rate (%): 19.3%

## N[C@@H](CO)C(=O)O [Serine, serine]
[1]
  Skin permeability relative value (Maximum value converted to 100%): 71.7%

## O=C1O[C@H](CO)[C@@H](O)[C@H](O)[C@H]1O [PHA, gluconolactone]
Back skin of a pig; pH 4.0, 10% gluconolactone, first positive control (reference = 100)
  Keratin exfoliation relative value (%): 100%
Back skin of a pig; pH 4.0, first positive control (reference = 100)
  Keratin exfoliation relative value (%): 100%
Back skin of a pig; pH 6.0 (mixtures adjusted to weakly acidic using citric acid)
  Keratin exfoliation relative value (%): 25.5%
Back skin of a pig; pH 6.0, 10% gluconolactone, second positive control
  Keratin exfoliation relative value (%): 18.8%

## TGF-β
Human fibroblasts; 10 ng/ml (positive control)
  Average absorbance: 2.335
  Collagen increase rate (%): 14.7%

## N[C@@H](CCC(=O)O)C(=O)O [Glu, glutamic acid]
HaCaT cells; 1 ppm
  Wound healing percentage (%) after 24 hours: 70.1%
Human fibroblasts; 10 ppm, cultured for 1 day
  Average absorbance: 2.240
Human fibroblasts; 10 ppm
  Collagen increase rate (%): 10.0%
